For five compounds, ΔTm results are on record in article PMC3145970, “Specific CLK Inhibitors from a Novel Chemotype for Regulation of Alternative Splicing” (Chemistry & Biology, 2011).

Where two headings read alike, the source gives them in different places.

Test in all cases: Thermal stability shift assay
Assay type in all cases: binding

The target of one assay is T1, p38d (Homo sapiens, UniProt O15264).
T1 construct: purchased in-house (SGC Oxford thermal shift panel)
T1 sequence (O15264 1-365): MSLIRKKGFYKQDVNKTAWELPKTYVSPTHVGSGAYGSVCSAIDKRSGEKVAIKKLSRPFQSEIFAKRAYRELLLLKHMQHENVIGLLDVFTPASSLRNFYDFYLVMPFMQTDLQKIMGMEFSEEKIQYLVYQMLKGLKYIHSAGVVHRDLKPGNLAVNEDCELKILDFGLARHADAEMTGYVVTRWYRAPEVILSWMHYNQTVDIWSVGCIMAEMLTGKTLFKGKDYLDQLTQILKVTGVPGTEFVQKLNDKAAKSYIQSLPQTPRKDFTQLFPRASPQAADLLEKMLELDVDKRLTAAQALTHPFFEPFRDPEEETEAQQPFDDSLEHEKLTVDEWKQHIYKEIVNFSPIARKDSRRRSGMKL
To be noted: read-out: Tm shift p38d. Summed up: (§1)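 Inhibitor (10 μM) was mixed with kinase (2 μM) in HEPES-buffered saline (10 mM, pH 7.5; 500 mM NaCl) plus SyproOrange, then the sample was heated stepwise in a real-time PCR machine to record denaturation.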

A further assay deals with T2, JAK1 (Homo sapiens, UniProt P23458).
T2 construct: purchased in-house (SGC Oxford thermal shift panel)
The settings on record: read-out: Tm shift JAK1. The essentials:
as §1

A further assay deals with T3, JNK2 (Homo sapiens, UniProt P45984).
T3 construct: purchased in-house (SGC Oxford thermal shift panel)
The settings on record: read-out: Tm shift JNK2. Summed up: as §1

The next assay concerns the target ZC2/TNIK (Homo sapiens, UniProt Q9UKE5). The settings on record: read-out: Tm shift ZC2/TNIK. Summed up: as §1
The next assay deals with CK2a2 (Homo sapiens, UniProt P19784). The settings on record: read-out: Tm shift CK2a2. Summed up:
as §1

In a further assay the target is T4, PLK4 (Homo sapiens, UniProt O00444).
T4 sequence (O00444 1-970): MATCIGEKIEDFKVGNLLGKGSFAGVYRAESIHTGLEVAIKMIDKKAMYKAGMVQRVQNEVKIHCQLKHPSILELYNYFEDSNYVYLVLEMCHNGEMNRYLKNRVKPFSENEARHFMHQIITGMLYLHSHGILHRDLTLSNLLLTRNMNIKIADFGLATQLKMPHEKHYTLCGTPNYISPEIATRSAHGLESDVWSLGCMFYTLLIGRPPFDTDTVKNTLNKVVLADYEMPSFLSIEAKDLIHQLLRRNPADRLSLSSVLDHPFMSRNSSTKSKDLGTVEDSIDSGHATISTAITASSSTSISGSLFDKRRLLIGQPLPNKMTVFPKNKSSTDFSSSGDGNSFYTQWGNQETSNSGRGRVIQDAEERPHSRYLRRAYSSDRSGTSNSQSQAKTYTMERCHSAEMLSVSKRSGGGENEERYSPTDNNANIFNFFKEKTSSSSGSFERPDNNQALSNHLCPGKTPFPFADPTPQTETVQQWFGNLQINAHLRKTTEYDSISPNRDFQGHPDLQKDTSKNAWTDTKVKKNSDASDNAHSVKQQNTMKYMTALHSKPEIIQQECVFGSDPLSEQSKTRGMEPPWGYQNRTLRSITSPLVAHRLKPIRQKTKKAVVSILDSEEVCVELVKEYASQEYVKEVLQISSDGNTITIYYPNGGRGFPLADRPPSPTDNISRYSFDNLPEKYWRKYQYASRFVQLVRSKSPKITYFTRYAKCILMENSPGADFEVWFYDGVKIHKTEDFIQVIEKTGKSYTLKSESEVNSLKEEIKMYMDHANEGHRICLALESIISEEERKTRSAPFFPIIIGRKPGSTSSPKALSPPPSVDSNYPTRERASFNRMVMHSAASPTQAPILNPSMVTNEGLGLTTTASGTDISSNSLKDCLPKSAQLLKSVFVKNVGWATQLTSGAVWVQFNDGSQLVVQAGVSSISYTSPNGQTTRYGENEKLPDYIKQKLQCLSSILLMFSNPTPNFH
The settings on record: read-out: Tm shift PLK4. Summed up: as §1

A further assay deals with T5, ALK4 (Homo sapiens, UniProt P36896).
T5 sequence (P36896 24-505): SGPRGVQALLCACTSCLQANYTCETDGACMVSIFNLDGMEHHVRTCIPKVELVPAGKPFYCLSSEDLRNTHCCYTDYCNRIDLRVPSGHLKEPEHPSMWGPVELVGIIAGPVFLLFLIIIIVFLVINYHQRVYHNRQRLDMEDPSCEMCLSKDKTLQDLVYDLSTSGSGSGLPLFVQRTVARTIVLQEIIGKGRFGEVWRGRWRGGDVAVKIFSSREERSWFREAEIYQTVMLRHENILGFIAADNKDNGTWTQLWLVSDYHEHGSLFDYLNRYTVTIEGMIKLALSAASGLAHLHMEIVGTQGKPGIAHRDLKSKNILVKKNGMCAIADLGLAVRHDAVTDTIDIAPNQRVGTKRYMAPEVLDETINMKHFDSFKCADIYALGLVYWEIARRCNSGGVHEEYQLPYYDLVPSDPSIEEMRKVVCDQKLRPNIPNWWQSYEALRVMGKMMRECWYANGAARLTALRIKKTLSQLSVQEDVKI
The settings on record: read-out: Tm shift ALK4. Summed up:
as §1

In a further assay the target is PIM2 (Homo sapiens, UniProt Q9P1W9). To be noted: read-out: Tm shift PIM2. The essentials:
as §1

For the next assay, the target named is PIM3 (Homo sapiens, UniProt Q86V86). The settings on record: read-out: Tm shift PIM3. The essentials:
as §1

For the next assay, the target named is CDK8 (Homo sapiens, UniProt P49336). The settings on record: read-out: Tm shift CDK8. Summed up:
as §1

The target in another assay is T6, JNK1 (Homo sapiens, UniProt P45983).
T6 construct: purchased in-house (SGC Oxford thermal shift panel)
The settings on record: read-out: Tm shift JNK1. Summed up: as §1

The next assay addresses T7, MST3 (Homo sapiens, UniProt Q9Y6E0).
T7 construct: purchased in-house (SGC Oxford thermal shift panel)
To be noted: read-out: Tm shift MST3. Summed up: as §1

T6 sequence (P45983 whole entry): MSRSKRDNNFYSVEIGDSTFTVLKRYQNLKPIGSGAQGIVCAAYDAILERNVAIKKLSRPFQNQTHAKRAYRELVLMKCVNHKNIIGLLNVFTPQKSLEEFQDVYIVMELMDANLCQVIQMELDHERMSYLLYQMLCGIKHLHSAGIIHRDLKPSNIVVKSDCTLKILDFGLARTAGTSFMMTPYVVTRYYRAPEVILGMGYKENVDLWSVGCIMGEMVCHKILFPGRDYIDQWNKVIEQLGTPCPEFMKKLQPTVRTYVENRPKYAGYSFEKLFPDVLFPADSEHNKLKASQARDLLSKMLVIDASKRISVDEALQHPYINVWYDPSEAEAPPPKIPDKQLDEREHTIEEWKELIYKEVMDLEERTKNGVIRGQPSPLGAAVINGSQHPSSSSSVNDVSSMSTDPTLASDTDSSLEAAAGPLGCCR
T7 sequence (Q9Y6E0 whole entry): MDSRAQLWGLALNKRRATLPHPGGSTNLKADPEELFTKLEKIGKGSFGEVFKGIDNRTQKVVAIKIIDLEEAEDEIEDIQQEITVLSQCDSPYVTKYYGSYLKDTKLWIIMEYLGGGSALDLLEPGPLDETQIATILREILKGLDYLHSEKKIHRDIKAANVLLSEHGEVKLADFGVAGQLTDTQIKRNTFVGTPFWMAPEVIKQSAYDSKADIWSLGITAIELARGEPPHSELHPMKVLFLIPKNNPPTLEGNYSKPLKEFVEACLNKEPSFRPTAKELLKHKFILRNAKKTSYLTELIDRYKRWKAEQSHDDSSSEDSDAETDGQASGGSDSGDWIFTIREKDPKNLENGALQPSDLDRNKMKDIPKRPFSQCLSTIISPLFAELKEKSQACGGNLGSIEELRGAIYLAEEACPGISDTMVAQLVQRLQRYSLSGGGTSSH
Chain of CDK8 (P49336 whole entry): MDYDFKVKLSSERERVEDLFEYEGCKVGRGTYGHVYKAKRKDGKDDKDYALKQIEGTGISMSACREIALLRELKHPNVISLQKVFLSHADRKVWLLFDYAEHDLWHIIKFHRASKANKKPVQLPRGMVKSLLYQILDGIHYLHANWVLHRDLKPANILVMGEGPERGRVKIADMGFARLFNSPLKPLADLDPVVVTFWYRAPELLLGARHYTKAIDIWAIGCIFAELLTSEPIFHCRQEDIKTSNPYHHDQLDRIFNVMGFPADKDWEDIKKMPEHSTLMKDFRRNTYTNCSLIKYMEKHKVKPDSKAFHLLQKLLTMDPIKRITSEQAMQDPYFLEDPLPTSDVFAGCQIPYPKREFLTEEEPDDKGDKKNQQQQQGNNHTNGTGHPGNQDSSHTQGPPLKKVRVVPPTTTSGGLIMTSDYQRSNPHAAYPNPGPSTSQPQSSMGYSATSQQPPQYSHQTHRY
Chain of ZC2/TNIK (Q9UKE5 whole entry): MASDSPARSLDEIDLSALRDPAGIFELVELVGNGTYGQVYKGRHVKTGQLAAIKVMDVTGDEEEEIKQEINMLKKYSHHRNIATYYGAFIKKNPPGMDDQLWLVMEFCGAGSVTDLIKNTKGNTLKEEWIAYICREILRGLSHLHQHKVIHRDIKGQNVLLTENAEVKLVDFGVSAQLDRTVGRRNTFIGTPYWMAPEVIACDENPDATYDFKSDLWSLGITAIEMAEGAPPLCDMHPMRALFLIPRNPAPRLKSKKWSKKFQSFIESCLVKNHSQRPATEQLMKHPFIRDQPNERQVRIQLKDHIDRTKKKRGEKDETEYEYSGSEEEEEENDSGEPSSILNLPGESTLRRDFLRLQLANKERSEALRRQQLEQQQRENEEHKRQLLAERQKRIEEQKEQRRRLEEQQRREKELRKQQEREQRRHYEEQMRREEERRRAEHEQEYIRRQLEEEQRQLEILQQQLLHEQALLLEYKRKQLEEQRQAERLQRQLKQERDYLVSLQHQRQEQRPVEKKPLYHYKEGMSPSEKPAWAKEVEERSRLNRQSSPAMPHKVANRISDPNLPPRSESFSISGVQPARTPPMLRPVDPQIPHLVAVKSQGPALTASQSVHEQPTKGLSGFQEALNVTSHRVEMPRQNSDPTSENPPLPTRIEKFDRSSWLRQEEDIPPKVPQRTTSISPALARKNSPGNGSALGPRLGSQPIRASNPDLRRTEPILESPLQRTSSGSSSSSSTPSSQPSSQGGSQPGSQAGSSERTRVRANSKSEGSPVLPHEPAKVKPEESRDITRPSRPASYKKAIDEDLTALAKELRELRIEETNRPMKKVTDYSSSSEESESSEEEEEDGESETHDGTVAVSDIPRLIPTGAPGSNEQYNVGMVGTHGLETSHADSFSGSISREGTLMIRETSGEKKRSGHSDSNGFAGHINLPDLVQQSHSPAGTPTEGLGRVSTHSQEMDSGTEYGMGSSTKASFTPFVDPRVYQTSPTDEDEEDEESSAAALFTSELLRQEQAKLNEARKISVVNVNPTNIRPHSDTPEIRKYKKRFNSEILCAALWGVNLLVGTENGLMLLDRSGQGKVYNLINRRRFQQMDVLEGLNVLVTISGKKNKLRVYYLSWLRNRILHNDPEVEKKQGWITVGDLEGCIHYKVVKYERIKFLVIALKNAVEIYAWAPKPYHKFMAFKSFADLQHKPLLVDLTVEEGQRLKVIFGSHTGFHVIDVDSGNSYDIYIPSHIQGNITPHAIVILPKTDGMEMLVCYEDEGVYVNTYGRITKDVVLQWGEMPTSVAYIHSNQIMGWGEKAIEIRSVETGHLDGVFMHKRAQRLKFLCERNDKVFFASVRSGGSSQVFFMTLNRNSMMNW
T2 sequence (P23458 whole entry): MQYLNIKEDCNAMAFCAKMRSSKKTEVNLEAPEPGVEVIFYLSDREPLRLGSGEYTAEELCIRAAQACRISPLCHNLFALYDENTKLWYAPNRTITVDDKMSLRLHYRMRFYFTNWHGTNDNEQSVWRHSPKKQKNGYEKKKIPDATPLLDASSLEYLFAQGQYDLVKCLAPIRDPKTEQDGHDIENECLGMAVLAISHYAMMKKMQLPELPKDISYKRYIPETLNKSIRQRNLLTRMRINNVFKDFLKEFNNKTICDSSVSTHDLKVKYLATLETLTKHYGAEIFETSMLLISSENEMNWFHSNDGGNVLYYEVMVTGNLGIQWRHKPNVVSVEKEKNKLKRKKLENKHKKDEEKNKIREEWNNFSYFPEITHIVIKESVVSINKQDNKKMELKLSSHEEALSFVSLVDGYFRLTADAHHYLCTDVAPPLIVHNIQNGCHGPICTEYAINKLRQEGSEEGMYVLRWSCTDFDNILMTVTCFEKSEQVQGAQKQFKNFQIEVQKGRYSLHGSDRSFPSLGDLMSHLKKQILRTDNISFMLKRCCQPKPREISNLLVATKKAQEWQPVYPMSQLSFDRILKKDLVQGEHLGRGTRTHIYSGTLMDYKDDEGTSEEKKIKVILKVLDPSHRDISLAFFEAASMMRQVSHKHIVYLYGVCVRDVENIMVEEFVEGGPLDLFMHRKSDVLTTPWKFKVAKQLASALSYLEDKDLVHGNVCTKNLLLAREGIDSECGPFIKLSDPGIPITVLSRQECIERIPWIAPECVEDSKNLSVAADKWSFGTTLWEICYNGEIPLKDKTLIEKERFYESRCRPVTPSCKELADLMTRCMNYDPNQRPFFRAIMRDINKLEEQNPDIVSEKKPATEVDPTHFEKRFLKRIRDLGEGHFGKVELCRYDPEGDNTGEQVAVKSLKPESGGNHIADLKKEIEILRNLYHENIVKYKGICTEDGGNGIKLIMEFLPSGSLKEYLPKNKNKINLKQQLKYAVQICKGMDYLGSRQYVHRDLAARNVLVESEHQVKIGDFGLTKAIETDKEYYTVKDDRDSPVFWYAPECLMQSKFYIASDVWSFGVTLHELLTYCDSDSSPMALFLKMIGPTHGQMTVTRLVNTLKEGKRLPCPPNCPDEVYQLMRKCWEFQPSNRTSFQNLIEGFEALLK
Chain of PIM2 (Q9P1W9 whole entry): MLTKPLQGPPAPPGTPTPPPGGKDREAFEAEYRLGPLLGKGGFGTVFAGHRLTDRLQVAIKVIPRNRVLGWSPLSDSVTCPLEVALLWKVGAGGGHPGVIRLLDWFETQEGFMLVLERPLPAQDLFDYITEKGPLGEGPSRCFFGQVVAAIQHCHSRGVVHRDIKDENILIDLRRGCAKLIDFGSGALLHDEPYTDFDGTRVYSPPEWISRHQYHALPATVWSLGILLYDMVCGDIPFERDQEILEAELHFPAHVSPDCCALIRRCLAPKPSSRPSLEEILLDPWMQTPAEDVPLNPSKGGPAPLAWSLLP
T3 sequence (P45984 whole entry): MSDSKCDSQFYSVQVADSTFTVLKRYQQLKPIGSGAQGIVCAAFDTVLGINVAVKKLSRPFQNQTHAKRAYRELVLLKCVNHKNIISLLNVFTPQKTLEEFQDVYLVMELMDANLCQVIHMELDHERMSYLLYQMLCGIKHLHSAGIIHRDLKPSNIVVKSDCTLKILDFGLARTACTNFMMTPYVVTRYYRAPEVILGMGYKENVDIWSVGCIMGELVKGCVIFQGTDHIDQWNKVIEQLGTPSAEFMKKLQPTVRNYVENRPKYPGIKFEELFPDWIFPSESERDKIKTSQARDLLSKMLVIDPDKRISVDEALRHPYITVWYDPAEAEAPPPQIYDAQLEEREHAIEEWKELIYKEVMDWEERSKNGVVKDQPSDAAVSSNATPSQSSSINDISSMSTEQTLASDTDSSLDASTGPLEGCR

For `CCOC(=O)c1c(/C(C#N)=C\N)c2ccc(Cl)c(Cl)c2n1C` [KH-CB19, (E)-Ethyl 3-(2-Amino-1-Cyanovinyl)-6,7-Dichloro-1-Methyl-1H-Indole-2-Carboxylate], the ΔTm at 10 µM on p38d is 0.3 °C; on JAK1, 0.7 °C; at JNK2 it was -0.2 °C; on ZC2/TNIK, 0.2 °C; on CK2a2, 1.4 °C; at PLK4, 0.7 °C. Moreover, the ΔTm at 10 µM at ALK4 turned out to be 1.2 °C; on PIM2, 2.1 °C; at PIM3 it was 3.1 °C; on CDK8, 1.5 °C; on JNK1, 0.9 °C; at MST3 it was 0.2 °C.

As for `NC1=NC(=O)/C(=C2\CCNC(=O)c3[nH]c(Br)cc32)N1` [Hymenialdisine, hymenialdisine, reference compound], the ΔTm at 10 µM at p38d (inhibitor 10 μM) was -0.1 °C; on JAK1 (inhibitor 10 μM) it was 0.3 °C; on JNK2 (inhibitor 10 μM) it was -0.1 °C; on ZC2/TNIK, 3.4 °C; at CK2a2 (inhibitor 10 μM), 1.2 °C; at PLK4 (inhibitor 10 μM), 3 °C. Besides, the ΔTm at 10 µM at ALK4 (inhibitor 10 μM) was 4.9 °C; on PIM2 (inhibitor 10 μM), 3.5 °C; on PIM3 (inhibitor 10 μM), 3.8 °C; at CDK8 (inhibitor 10 μM), 0.1 °C; at JNK1 (inhibitor 10 μM), -0.5 °C; at MST3 (inhibitor 10 μM), 1 °C.

On to `CCOC(=O)c1c(C(C#N)=CN(C)C)c2ccc(Cl)c(Cl)c2n1C` (mixture of isomers) [compound 2, (E/Z)-Ethyl 6,7-Dichloro-3-[1-Cyano-2-(Dimethylamino)Vinyl]-1-Methyl-1H-Indole-2-Carboxylate], for which the ΔTm at 10 µM was 0.4 °C at p38d (inhibitor 10 μM); 0.2 °C on JAK1 (inhibitor 10 μM); -0.2 °C on JNK2 (inhibitor 10 μM); 0.1 °C at ZC2/TNIK (inhibitor 10 μM); 0 °C at CK2a2 (inhibitor 10 μM); 0.2 °C at PLK4 (inhibitor 10 μM). In addition, the ΔTm at 10 µM at ALK4 (inhibitor 10 μM) is 4 °C; at PIM2 (inhibitor 10 μM), 0.8 °C; on PIM3 (inhibitor 10 μM), 3.2 °C; at CDK8 (inhibitor 10 μM), 0.4 °C; on JNK1 (inhibitor 10 μM), 0.1 °C; at MST3 (inhibitor 10 μM), -1.1 °C.

For `CCOC(=O)c1c(C(C#N)=CN)c2ccc(Cl)c(Cl)c2n1C` (mixture of isomers) [KH-CB20, (E/Z)-Ethyl 3-(2-Amino-1-Cyanovinyl)-6,7-Dichloro-1-Methyl-1H-Indole-2-Carboxylate], the ΔTm at 10 µM at p38d was -0.3 °C; on JAK1 it was 1 °C; on JNK2, 0.5 °C; on ZC2/TNIK it was -0.1 °C; on CK2a2 it was 1.3 °C; at PLK4 it was 0.2 °C. For the same compound, the ΔTm at 10 µM at ALK4 is 1.4 °C; on PIM2 it was 2.1 °C; on PIM3, 2.8 °C; at CDK8 it was 1.3 °C; at JNK1, 0.2 °C; at MST3, -0.1 °C.

Turning to `Cn1c2c(Cl)c(Cl)ccc2c2c(C#N)c[nH]c(=O)c21` [compound 3, 7,8-Dichloro-9-Methyl-1-Oxo-2,9-Dihydro-1H-Pyrido[3,4-b]Indole-4-Carbonitrile], the ΔTm at 10 µM at p38d (inhibitor 10 μM) is 0.3 °C; on JAK1 (inhibitor 10 μM), 0.9 °C; on JNK2 (inhibitor 10 μM), -0.5 °C; at ZC2/TNIK (inhibitor 10 μM), 0 °C; at CK2a2 (inhibitor 10 μM) it was 1.7 °C; on PLK4 (inhibitor 10 μM), 0.5 °C. For the same compound, the ΔTm at 10 µM amounted to 0.9 °C on ALK4 (inhibitor 10 μM); 3 °C on PIM2 (inhibitor 10 μM); 4.2 °C on PIM3 (inhibitor 10 μM); 2.5 °C at CDK8 (inhibitor 10 μM); 0.2 °C on JNK1 (inhibitor 10 μM); 0.1 °C at MST3 (inhibitor 10 μM).
